In data set [1] the target is T1, Heat shock factor protein 1 (Mus musculus, UniProt P38532).
T1 sequence (P38532 whole entry): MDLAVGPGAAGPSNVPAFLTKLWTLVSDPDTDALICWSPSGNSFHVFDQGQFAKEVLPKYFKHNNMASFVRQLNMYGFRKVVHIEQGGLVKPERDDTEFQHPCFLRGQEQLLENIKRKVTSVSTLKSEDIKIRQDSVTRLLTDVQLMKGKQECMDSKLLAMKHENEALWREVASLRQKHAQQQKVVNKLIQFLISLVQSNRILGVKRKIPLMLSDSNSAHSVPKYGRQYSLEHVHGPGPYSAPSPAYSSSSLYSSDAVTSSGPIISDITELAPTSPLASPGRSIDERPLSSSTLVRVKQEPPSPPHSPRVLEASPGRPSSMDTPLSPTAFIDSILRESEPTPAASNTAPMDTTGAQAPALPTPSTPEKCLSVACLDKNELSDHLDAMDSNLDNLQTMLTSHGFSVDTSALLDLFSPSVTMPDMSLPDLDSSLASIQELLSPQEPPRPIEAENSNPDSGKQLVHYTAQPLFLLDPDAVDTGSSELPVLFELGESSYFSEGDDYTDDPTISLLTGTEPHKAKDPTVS
Put plainly: enhancement of HSF1-driven luciferase signal – cell-based, NIH3T3, luminescence, dose retest, confirmation (AID 435004).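 Also: stress induced by proteasome inhibitor MG132 added 30 min after compound; luciferase reporter driven by HSF1 response element in NIH3T3 cells; actives raise luminescence as potentiators of the MG132 stress response.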 It counts as functional.

The target in data set [2] is T2, Streptokinase A (Streptococcus pyogenes serotype M1, UniProt P10520).
T2 sequence (P10520 whole entry): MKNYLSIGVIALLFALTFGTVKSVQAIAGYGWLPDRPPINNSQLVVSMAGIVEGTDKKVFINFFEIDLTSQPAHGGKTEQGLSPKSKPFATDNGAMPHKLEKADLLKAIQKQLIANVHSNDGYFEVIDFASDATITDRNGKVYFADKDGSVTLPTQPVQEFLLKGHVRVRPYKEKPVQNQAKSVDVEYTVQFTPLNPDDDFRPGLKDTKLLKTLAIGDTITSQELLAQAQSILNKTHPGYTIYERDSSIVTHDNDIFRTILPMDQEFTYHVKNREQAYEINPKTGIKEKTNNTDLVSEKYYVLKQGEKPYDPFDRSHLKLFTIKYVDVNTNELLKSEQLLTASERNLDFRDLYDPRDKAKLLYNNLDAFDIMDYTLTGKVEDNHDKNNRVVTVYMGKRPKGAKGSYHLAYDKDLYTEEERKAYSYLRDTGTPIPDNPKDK
The data set is described as follows: viability-normalized secreted streptokinase activity reduction – plasminogen activation absorbance, OD405, dose response (AID 1914).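 Also: secreted streptokinase activity via plasminogen activation per viability signal from cell pellet.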 It is filed as functional, Streptococcus pyogenes M1 GAS.

The test system of data set [3] is Streptococcus sp. 'group A'. The data set is described as follows: Streptococcus pyogenes SK(-)GAS viability under kanamycin – luminescence, BacTiterGlo, confirmation, counter-screen for streptokinase expression inhibitor project, dose response (AID 1900). It counts as functional, organism-based.
For data set [4], the system named is Streptococcus. The data set is described as follows: GAS UMAA2166 growth inhibition – luminescence, BacTiterGlo, counter-screen for streptokinase expression inhibitor project, dose response (AID 1915).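 Also: potency for reduction of bacterial viability or growth.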 It counts as functional, organism-based.
In data set [5] the target is Cytochrome P450 2C9 (Homo sapiens, UniProt P11712).
Data set [6] in a line: viability of uninfected HEp-2 cells – cell-based, HTS, cytotoxicity control for RSV inhibitor project, dose response (AID 2410). It is filed as functional. As to conditions: human respiratory syncytial virus.
Data set [7] in a line: alpha-synuclein stem-loop luciferase translation blockers – H4 neuroglioma cells, luminescence, confirmation (AID 1988). It counts as functional, cell-based.
A short description of data set [8]: Luminescence Cell-Based Dose Response HTS to Identify Inhibitors of 5'UTR Stem-Loop Driven Prion Protein mRNA Translation in H4 Neuroglioblastoma Cells. [Related pubchem assays: 1827 (Project Summary), 1813 (Primary HTS)]. It counts as functional.
The target in data set [9] is Cytochrome P450 2C19 (Homo sapiens, UniProt P33261). Put plainly: Cytochrome panel assay with activity outcomes. Panel member name: p450-cyp2c19 Compounds with AC50 equal or less than 10 uM are considered active. It counts as functional.
A short description of data set [10]: Luminescence Cell-Based Dose Retest to Confirm Inhibitors of Cancer Stem Cells. [Related pubchem assays (depositor defined):AID2717, AID2721]. It counts as functional. As to conditions: Homo sapiens.
Data set [11] has as its system H4. Put plainly: Luminescence Cell-Based Dose Response HTS to Identify Activators of 5'UTR Stem-Loop Driven Prion Protein mRNA Translation in H4 Neuroglioblastoma Cells. [Related pubchem assays: 1829 (Project Summary), 1814 (Primary HTS)]. It counts as functional. As to conditions: Homo sapiens.

Activity calls are given as the source filed them. Some results are limits rather than exact numbers.

Cytochrome P450 2C9, sequence (P11712 whole entry): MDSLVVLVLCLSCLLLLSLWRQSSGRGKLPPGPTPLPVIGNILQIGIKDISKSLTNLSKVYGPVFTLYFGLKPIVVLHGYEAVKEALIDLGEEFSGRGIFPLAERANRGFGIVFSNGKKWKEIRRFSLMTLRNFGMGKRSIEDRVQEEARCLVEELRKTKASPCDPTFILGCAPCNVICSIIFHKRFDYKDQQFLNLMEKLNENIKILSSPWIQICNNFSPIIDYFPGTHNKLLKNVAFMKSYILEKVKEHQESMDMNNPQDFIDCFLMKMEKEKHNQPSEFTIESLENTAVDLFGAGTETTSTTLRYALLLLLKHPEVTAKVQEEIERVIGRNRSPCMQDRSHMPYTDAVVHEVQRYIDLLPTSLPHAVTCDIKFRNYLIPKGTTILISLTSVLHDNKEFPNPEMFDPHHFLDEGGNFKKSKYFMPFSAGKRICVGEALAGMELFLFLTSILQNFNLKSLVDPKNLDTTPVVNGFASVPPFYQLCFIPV
Cytochrome P450 2C19, sequence (P33261 whole entry): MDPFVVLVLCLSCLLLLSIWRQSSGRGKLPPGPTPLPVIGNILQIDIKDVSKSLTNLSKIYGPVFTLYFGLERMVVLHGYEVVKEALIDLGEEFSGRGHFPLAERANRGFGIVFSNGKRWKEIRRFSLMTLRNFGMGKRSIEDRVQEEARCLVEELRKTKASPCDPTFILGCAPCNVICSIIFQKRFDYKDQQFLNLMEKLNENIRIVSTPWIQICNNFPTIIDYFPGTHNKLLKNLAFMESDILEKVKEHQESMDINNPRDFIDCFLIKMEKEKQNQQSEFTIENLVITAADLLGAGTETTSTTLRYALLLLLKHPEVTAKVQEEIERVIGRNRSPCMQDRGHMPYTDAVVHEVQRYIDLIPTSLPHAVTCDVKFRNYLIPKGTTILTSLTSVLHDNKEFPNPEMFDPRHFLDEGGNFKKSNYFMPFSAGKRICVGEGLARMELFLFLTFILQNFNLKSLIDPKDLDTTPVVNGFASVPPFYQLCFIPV

Turning to `COc1cccc(C(=O)c2c(C)c(CCC#N)n3ccccc23)c1OC`, in data set [1], the EC50 is > 260 µM (inactive).

Take `CC(NC(=O)Cn1c(=O)[nH]c2ccsc2c1=O)C12CC3CC(CC(C3)C1)C2` (centres undefined): the 50% effective concentration (EC50) in [2], in [3] and in data set [4] was > 150 µM (not active) each time.

Regarding `O=C(Nc1cccnc1)C1COc2ccccc2O1` (centres undefined), the half-maximal activity concentration (AC50) in data set [5] is 5.01 µM (inconclusive).

Turning to `CC(C)SC1=NC(/C=C/c2ccc(Cl)cc2Cl)=CC(C)(C)N1`, the half-maximal effective concentration (EC50) in data set [1] is 38.9 µM (active).

As to `CC(/C=C/c1ccc(N(C)C)cc1)=N/NC1=NC(=O)CC(C(=O)Nc2ccc(Cl)cc2)S1` (centres undefined), the EC50 was > 150 µM (not active) in data set [2], 2.94 µM (active) in [3] and 8.65 µM (active) in [4].

For the compound `Cc1nc2ccccc2c(N)c1C(=O)/C=C/c1ccccc1`, the CC50 in data set [6] was 9.1 µM (active).

For the compound `COc1ccc(/C=C2\SC(=S)N(CCC(=O)NC3C=CS(=O)(=O)C3)C2=O)cc1` (centres undefined), the half-maximal effective concentration (EC50) was 13.4 µM (active) in [7] and 15.7 µM (active) in [8].

As for `CC(=O)OCc1c(C(F)(F)F)nn(C)c1Sc1ccccc1`, the concentration at half-maximal activity (AC50) in data set [5] was 28.2 µM (inconclusive).

Turning to `Cc1ccc(S(=O)(=O)NCC(=O)OCC(=O)N2N=C(c3ccc(Cl)cc3)CC2c2ccco2)cc1C` (centres undefined), the concentration giving a half-maximal response (EC50) in [2] was 22.4 µM (active); in data set [3], 18.6 µM (active); in data set [4], 61 µM (active).

Consider `COc1cc(/C=C/C(=O)N2CCOCC2)ccc1OCc1ccccc1`, for which, in [1], the EC50 was > 260 µM (inactive).

As to `c1ccc(Nc2nc(N3CCCCC3)nc(N3CCCCC3)n2)cc1`, the EC50 in data set [2] is > 150 µM (not active); in data set [3], 11.7 µM (active); in data set [4], 33.9 µM (active).

As for `COc1cccc(-c2ccc(SCC(=O)c3ccccc3)nn2)c1`, the cytotoxic concentration (CC50) in data set [6] is 35.2 µM (active).

Take `Cc1ccc(-n2c3c(c(=O)[nH]c2=O)C(C(F)(F)F)(C(F)(F)F)NC(=O)N3)cc1`: the AC50 in data set [5] was 20 µM (inconclusive); in data set [9] (read-out: AC50) it was 39.8 µM (inconclusive).

Regarding `O=C(CNC(=O)c1ccco1)NCc1nc2ccccc2[nH]1`, the EC50 in data set [2], in data set [3] and in [4] was > 150 µM (not active) in each case.

Consider `CCc1nn(C(C)C(=O)NC(C)CCc2ccco2)c(=O)c2cc3occc3n12` (centres undefined), for which the CC50 in data set [6] is > 50 µM (active). The EC50 in data set [1] was > 260 µM (inactive).

Take `CC(C)(C)OC(=O)COc1cc(OCC(=O)OC(C)(C)C)c2c(=O)cc(-c3ccccc3)oc2c1`: in [5], the concentration at half-maximal activity (AC50) is 2 µM (inconclusive). Further, the cytotoxic concentration (CC50) in data set [6] was 19.6 µM (active).

As for `Cn1c(-c2ccc(F)cc2)cnc1NCc1cccc(F)c1`, the AC50 in data set [5] was 39.8 µM (inconclusive).

For `Cc1c(C(=O)NCCN(C)C)oc2ccc(S(=O)(=O)N3CCCC3)cc12`, the EC50 in [1] is > 260 µM (inactive).

With `Cn1ncc(Br)c1C(=O)N1CCOCC1`, in [1], the EC50 is > 260 µM (inactive).

Consider `COc1ccc(C2NC(S)=NC3=C2CCc2cc(OC)ccc23)cc1` (centres undefined), for which the 50% cytotoxic concentration (CC50) in [6] is 26.4 µM (active).

Regarding `Cc1cccc2cc(CN(Cc3ccco3)C(c3nnnn3CCc3ccccc3)C(C)C)c(O)nc12` (centres undefined), the 50% effective concentration (EC50) in data set [1] was 70.3 µM (active).

For the compound `CCS(=O)(=O)Nc1ccc2[nH]c(O)nc2c1`, the EC50 in data set [1] was > 260 µM (inactive).

With `Cc1cc(NC(=O)c2cc(C)on2)n(-c2ccccc2)n1`, in data set [1], the EC50 is > 260 µM (inactive).

Turning to `CC[C@H](C)/C=C(C)/C=C/C(=O)Cc1cc(O)c(C)c(O)c1C=O`, in data set [1], the EC50 was 27.5 µM (active).

`Cn1c(-c2ccc(Br)cc2)cnc1NCc1cccnc1`: the AC50 in data set [5] is 15.8 µM (inconclusive); in data set [9] (read-out: AC50) it was 17.8 µM (inconclusive).

As for `CCOC(=O)N1CCN(S(=O)(=O)c2cc(Cl)c(OC)cc2Cl)CC1`, the EC50 in data set [1] was > 260 µM (inactive).

Turning to `O=C(O)[C@H]1[C@H]2c3ccccc3[C@H](c3ccccc32)[C@@H]1C(=O)NCC1CC1`, the concentration at half-maximal activity (AC50) in data set [9] (read-out: AC50) is 3.98 µM (inconclusive).

`COc1ccc(CN2CC(C(=O)NCCCN3CCOCC3)CC2=O)cc1` (centres undefined): in [1], the EC50 was > 260 µM (inactive).

`COc1ccc(Br)c2oc(SC)cc(=O)c12`: the CC50 in data set [6] was > 50 µM (active).

For the compound `COc1ccc(Nc2nc(-c3ccccc3)nc3ccccc23)cc1`, the CC50 in data set [6] was 13.1 µM (active).

For `O=C(COC(=O)c1cn(-c2ccccc2)nc1-c1ccccc1)c1ccc([N+](=O)[O-])cc1`, the EC50 in [1] was > 260 µM (inactive).

For the compound `CN(C)C(=O)c1ccc(-c2ccc3ncnc(N(C)C)c3c2)cc1`, the AC50 in data set [5] was 1.26 µM (inconclusive).

On to `Cc1ccc(/C=N/NC2=NC(=O)CS2)o1`, for which the CC50 in data set [6] is 21.5 µM (active).

`COC(=O)c1c(C)nc(O)nc1SCc1cccc2ccccc12`: in data set [6], the cytotoxic concentration (CC50) was > 50 µM (active).

In the case of `Cc1nn(-c2ccccc2)c(Cl)c1/C=C1\C(=O)N(C)C(=S)N1C`, the cytotoxic concentration (CC50) in data set [6] was 26.6 µM (active).

Take `O=C(Nc1ccc([N+](=O)[O-])cc1)C1C(c2ccccc2)=C1c1ccccc1`: the EC50 in [1] was > 260 µM (inactive).

`C[N+]1(C)C[C@@H](O)C[C@@H]1C(=O)[O-]` [BETONICINE]: the AC50 result in data set [9] is “inconclusive”.

`O=C(Nc1cccc(F)c1)N1CCC2(CC1)CCN(C(=O)Oc1ccccc1)CC2`: the half-maximal activity concentration (AC50) in [5] was 39.8 µM (inconclusive).

`COc1ccc(CNS(=O)(=O)c2cc(CN3C(=O)c4cccnc4C3=O)ccc2OC)cc1`: the EC50 in [1] is > 260 µM (inactive).

With `COc1ccc2[nH]cc(CCNc3ncnc4ccc(-c5ccoc5)cc34)c2c1`, the concentration at half-maximal activity (AC50) in data set [5] was 0.398 µM (inconclusive).

Turning to `N#Cc1c(F)cccc1N1CCOCC1`, in data set [6], the cytotoxic concentration (CC50) is 23.6 µM (active).

As to `Cc1ccc(NC(=O)COC(=O)/C=C/c2ccc(Br)o2)cc1S(=O)(=O)N(C)C`, the EC50 in [1] was > 260 µM (inactive).

In the case of `CC(=O)Nc1nnc(S(=O)(=O)N2CCN(c3ccc(Cl)cc3[N+](=O)[O-])CC2)s1`, the EC50 was > 150 µM (not active) in data set [2], 29.1 µM (active) in data set [3] and > 150 µM (not active) in data set [4].

As for `CC(C)c1ccc(/C=N/NC(=O)c2cccc(Cl)c2)cc1`, in data set [10], the half-maximal activity concentration (AC50) is 2.88 µM (active). In addition, the EC50 in [11] is 43.1 µM (active).

For the compound `CCOc1ccc(C(C)=O)cc1N1C(=O)C2C(C1=O)C1C=CC2C12CC2` (centres undefined), the AC50 in [5] is 14.1 µM (inconclusive); in [9] (read-out: AC50) it was 17.8 µM (inconclusive).

Take `COCCn1nc2cc(C(=O)NCc3cc(C(F)(F)F)cc(C(F)(F)F)c3)ccc2c1OC`: the half-maximal activity concentration (AC50) in data set [9] (read-out: AC50) is 3.16 µM (inconclusive).

Turning to `O=C(/C=C/c1ccccc1)NC(=S)NNC(=O)Cc1cccs1`, the EC50 is > 150 µM (not active) in [2], 1.39 µM (active) in data set [3] and 30.3 µM (active) in [4].

On to `CCOc1nc(NCCc2ccc(OC)c(OC)c2)nc(NC(C)(C)CO)n1`, for which the half-maximal activity concentration (AC50) in [5] is 31.6 µM (inconclusive).

Take `CC(=O)[C@@]1(O)CC[C@H]2[C@H]3C[C@@H](C)C4=CC(=O)C=C[C@]4(C)[C@@]3(F)[C@@H](O)C[C@]21C`: in data set [5], the AC50 is 12.6 µM (inconclusive).

As to `O=c1c2ccccc2nc(SCc2cn3ccsc3n2)n1-c1ccccc1`, the EC50 in data set [1] was > 260 µM (inactive).

As for `S=c1[nH]cc(Cc2ccccc2)s1`, the EC50 in [1] was > 260 µM (inactive).

In the case of `COC(=O)[C@@H]1CC[C@H](C)[C@@H](c2ccc(C)cc2)N1C(=O)c1ccc(/C=N\OCC[C@@H]2C=C[C@H](OC(C)=O)[C@H](COC(C)=O)O2)cc1`, in data set [5], the half-maximal activity concentration (AC50) is 3.98 µM (inconclusive).

As to `O=C(Nc1ccsc1C(=O)O)c1cccc(Oc2ccccc2)c1`, the CC50 in data set [6] was 18.3 µM (active).
